Data from paper PMC10849753, “Antiproliferative activity of platinum(II) and copper(II) complexes containing novel biquinoxaline ligands” (Metallomics: Integrated Biometal Science, 2024).

How the values were obtained:
[1] = target: T1, human serum albumin (HSA) (Homo sapiens, UniProt P02768); test: HSA thermal denaturation; assay type: binding; conditions: HSA alone 114°C; 280 nm
Procedure: The HSA thermal decomposition was followed at 280 nm upon increasing the temperature from 30°C to 130°C at a 1°C min^−1 rate from the spectral change. In order to better examine the processes involving the interaction of metal complexes and protein structure, viscometric titration was carried out in the same manner as for the nucleic acid.

[2] = target: T1, human serum albumin (HSA); test: HSA fluorescence quenching titration; assay type: binding; parameters: unit not given here; conditions: 1 μM HSA, 0-50 μM complexes
Procedure: Tests involving fluorescence titration were conducted by maintaining the concentration of 1 μM HSA and changing the concentrations of the complexes between 0 and 50 μM in 5 mM Tris HCl buffer. The fluorescence spectral measurements were made at […] to 500 nm after exciting the solution at 280 nm.

A549 cells = test: MTT cell viability assay; assay type: cell-based, human
Procedure: (§1) Cell culture growth conditions: Selected cancer cell lines from different origins, including human glioblastoma A172 (CRL-1620), LN229 (CRL-2611), U87 (HTB-14) cell lines, human cervix HeLa (ATCC, CCL-2), human breast MDA -231 (HTB-26), human prostate PC-3 (ATCC, CRL-1435), human lung A-549 (CCL-185), and non-cancer Chinese hamster ovary CHOK1 cell line (CCL61) (which was used as control) were purchased from American Type Culture Collection (ATCC, USA). These cultures were grown in Dulbecco's modified Eagle's medium-F12 (DMEM/F12, #D0547, Sigma-Aldrich) supplemented with 5% fetal bovine serum (#10500, Gibco) and 1% antibiotic-antimycotic (#15240, Gibco), and incubated at 37°C and 5% CO2. They were harvested and used for the following assays after reaching 70–80% confluency.
(§2) The used cell lines (A172, LN229, U87, HeLa, MDA-231, PC-3, A549, and CHO-K1) were harvested and seeded (6 × 10^3 cells/well) into the 96-well plates and incubated at 37°C and 5% CO2 for 24 h. After that, the synthesized Cu(II) and Pt(II) complexes, at a concentration range of 6.25 to 100 μM in DMEM-F12, were added to the cell monolayers and incubated at 37°C and 5% CO2 for 24, 48, and 72 h. The dose–response relationships of the synthesized complexes were determined by using an MTT colorimetric agent (3-[4,5-dimethylthiazol-2-yl]-2,5-diphenyltetrazolium bromide, #M5655, Sigma-Aldrich), which is reduced by the mitochondrial enzymes of the metabolically active live cells and converted into a purple formazan product. The MTT stock solution was later dissolved in a phosphate buffer solution (PBS, 5 mg/ml, w/v) and, then, 5 μg/ml of MTT in DMEM was added into each well and incubated at 37°C and 5% CO2 for 4 h. DMSO (#D 8418, Sigma-Aldrich), as a dissolving solution for formazan crystals, was added into each well and placed in a shaker for 2 h. The absorbance at a test wavelength of 570 nm and a reference wavelength of 630 nm was measured on a microplate reader.

PC3 cells = test: MTT cell viability assay; assay type: cell-based, human
Procedure: as §1, §2

HeLa cells [3] = test: MTT cell viability assay; assay type: cell-based, human
Procedure: as §1, §2

MDA231 cells = test: MTT cell viability assay; assay type: cell-based, human
Procedure: as §1, §2

A172 cells = test: MTT cell viability assay; assay type: cell-based, human
Procedure: as §1, §2

U87 cells = test: MTT cell viability assay; assay type: cell-based, human
Procedure: as §1, §2

CHO-K1 cells = test: MTT cell viability assay (non-cancer control); assay type: cell-based, Chinese hamster
Procedure: as §1, §2

EtBr-bound CT-DNA = test: Fluorescence quenching of EtBr-pretreated CT-DNA (Stern–Volmer); assay type: binding, calf; parameters: unit not given here; conditions: 0 to 160 μM compounds
Procedure: In order to obtain the linear Stern–Volmer quenching constant (Ksv), a Thermo-Scientific Lumina Fluorescence Spectrometer was used to conduct the flourometric measurements of 10 μM ethidium bromide (EtBr)-pretreated CT-DNA solutions in the presence of 0 to 160 μM compounds.[31],[36] The excitation wavelength was adjusted at 478 nm, and emissions ware observed at about 610 nm.

[4] = target: T1, human serum albumin (HSA); test: UV titration with HSA; conditions: binding to HSA, 310-340 K
Procedure: The change in the electronic absorption spectrum of the complexes in the presence and the absence of CT-DNA was followed using an HP Agilent8453 Spectrophotometer. During the measurements, the concentration of the compounds was kept constant [Cu(tpbq)Cl2 = 3.0 × 10^−3 M; Cu(ttbq)Cl2 = 0.50 × 10^−3 M; Pt(tpbq)Cl2 = 3.0 × 10^−3 M; Pt(ttbq)Cl2 = 3.0 × 10^−3 M)], while the CT-DNA concentration was changed depending on the R (R=[DNA]/[complex]) value of 0 to 10. […] The optimal incubation time was determined as 30 min for Cu(ttbq)Cl2, 60 min for Pt(tpbq)Cl2, and 45 min for Cu(tpbq)Cl2 and Pt(ttbq)Cl2 at 37°C spectroscopically. […] The optimal incubation time for HSA binding titrations was determined as 30 min for Cu(ttbq)Cl2 and Pt(ttbq)Cl2, and 60 min for Cu(tpbq) Cl2 and Pt(tpbq)Cl2 spectroscopically.[37]

HeLa cells [5] = test: In vitro scratch wound healing (cell migration); assay type: cell-based, human; conditions: 6.25 and 12.5 μM, 24, 48, and 72 h
Procedure: In vitro scratch wound healing experiments were carried out with HeLa cell lines (3 × 10^4 cells/insert), which were seeded into 6-well plates. When they reached 80–90% confluence, scratches were created using AutoScratch (BioTek) in a straight line. The same Cu(II) or Pt(II) complex concentrations (6.25 or 12.5 μM) were used and incubated in the presence of 5% CO2 at 37°C in a humidified incubator for 24, 48, and 72 h. Images were obtained at the beginning of the exposure (time 0), and repeated at the end of 24, 48, and 72 h incubation periods.

T1 sequence (P02768 25-609): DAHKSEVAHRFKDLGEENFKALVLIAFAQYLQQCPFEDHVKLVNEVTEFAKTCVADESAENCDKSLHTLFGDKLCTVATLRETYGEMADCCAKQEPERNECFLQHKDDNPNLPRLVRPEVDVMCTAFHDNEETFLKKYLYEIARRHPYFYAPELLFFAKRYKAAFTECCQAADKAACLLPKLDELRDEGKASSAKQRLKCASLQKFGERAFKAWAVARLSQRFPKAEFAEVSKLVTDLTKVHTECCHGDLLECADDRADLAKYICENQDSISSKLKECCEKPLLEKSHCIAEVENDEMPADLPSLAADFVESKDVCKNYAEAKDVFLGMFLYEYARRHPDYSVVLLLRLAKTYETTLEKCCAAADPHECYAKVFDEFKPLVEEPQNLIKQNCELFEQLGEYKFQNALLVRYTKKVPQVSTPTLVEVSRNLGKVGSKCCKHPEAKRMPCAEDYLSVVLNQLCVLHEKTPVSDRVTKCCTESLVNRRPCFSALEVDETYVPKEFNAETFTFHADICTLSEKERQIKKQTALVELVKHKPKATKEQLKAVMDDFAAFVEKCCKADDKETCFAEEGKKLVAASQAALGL

melting point of HSA upon addition of the complex [1] | KSV (Stern–Volmer quenching constant) [2] | IC50 (A549 cells; A549, 24 h exposure) | IC50 (A549 cells; A549, 48 h exposure) | IC50 (A549 cells; A549, 72 h exposure) | IC50 (PC3 cells; PC3, 24 h exposure) | IC50 (PC3 cells; PC3, 48 h exposure) | IC50 (PC3 cells; PC3, 72 h exposure) | IC50 (HeLa cells [3]; 24 h exposure) | IC50 (HeLa cells [3]; 48 h exposure) | IC50 (HeLa cells [3]; 72 h exposure) | IC50 (U87 cells; U87, 24 h exposure) | IC50 (U87 cells; U87, 48 h exposure) | Compound | IC50 (MDA231 cells; MDA231, 24 h exposure) | IC50 (MDA231 cells; MDA231, 48 h exposure) | IC50 (MDA231 cells; MDA231, 72 h exposure) | IC50 (A172 cells; A172, 24 h exposure) | IC50 (A172 cells; A172, 48 h exposure) | IC50 (A172 cells; A172, 72 h exposure) | IC50 (CHO-K1 cells; CHO-K1, 24 h exposure) | also measured
110 °C | 0.0059 | > 100 µM | > 100 µM | > 100 µM | > 100 µM | > 100 µM | > 100 µM | > 100 µM | > 100 µM | > 100 µM | 79.5 ± 26.4 µM | 5.49 ± 0.01 µM | [Cl][Cu][Cl].c1ccc(-c2nc3ccc(-c4ccc5nc(-c6ccccn6)c(-c6ccccn6)nc5c4)cc3nc2-c2ccccn2)nc1 [Cu(tpbq)Cl2] | 72.1 ± 26 µM | > 100 µM | > 100 µM | > 100 µM | > 100 µM | 92 ± 7.46 µM | > 100 µM | IC50 (U87 cells; U87, 72 h exposure): 13.5 ± 6.06 µM; IC50 (CHO-K1 cells; CHO-K1, 48 h exposure): > 100 µM; IC50 (CHO-K1 cells; CHO-K1, 72 h exposure): > 100 µM; KSV (Stern–Volmer quenching constant) (EtBr-bound CT-DNA): 0.0105; ΔG^o (standard Gibbs free energy change) [4]: -19800 J; ΔH^o (standard enthalpy change) [4]: 120800 J; ΔS^o (standard entropy change) [4]: 458.15 J/K
111 °C | 0.0720 | 73.5 ± 1.35 µM | 70.7 ± 4.09 µM | 66.9 ± 8.7 µM | 65.8 ± 5.35 µM | 75.5 ± 3.16 µM | 62.3 ± 4.02 µM | 67.5 ± 2.78 µM | 74.22 ± 0.45 µM | 65 ± 2.75 µM | 31.2 ± 0.43 µM | 2.95 ± 0.97 µM | [Cl][Cu][Cl].c1csc(-c2nc3ccc(-c4ccc5nc(-c6cccs6)c(-c6cccs6)nc5c4)cc3nc2-c2cccs2)c1 [Cu(ttbq)Cl2] | 20.6 ± 2.39 µM | 32.1 ± 1.05 µM | 41 ± 0.6 µM | 69.44 ± 0.19 µM | 63.9 ± 3.56 µM | 57.4 ± 13.7 µM | > 100 µM | migration of HeLa cells toward the scratch zone (HeLa cells [5]): declined; IC50 (U87 cells; U87, 72 h exposure): 5.75 ± 0.03 µM; IC50 (CHO-K1 cells; CHO-K1, 48 h exposure): > 100 µM; IC50 (CHO-K1 cells; CHO-K1, 72 h exposure): > 100 µM; KSV (Stern–Volmer quenching constant) (EtBr-bound CT-DNA): 0.0137; ΔG^o (standard Gibbs free energy change) [4]: -27900 J; ΔH^o (standard enthalpy change) [4]: 53100 J; ΔS^o (standard entropy change) [4]: 258.51 J/K
109 °C | 0.0261 | > 100 µM | 58.4 ± 5.35 µM | 40.3 ± 3.42 µM | > 100 µM | > 100 µM | > 100 µM | > 100 µM | 58 ± 26.9 µM | 42.9 ± 1.69 µM | 58.4 ± 11.8 µM | 34.7 ± 2.16 µM | [Cl][Pt][Cl].c1ccc(-c2nc3ccc(-c4ccc5nc(-c6ccccn6)c(-c6ccccn6)nc5c4)cc3nc2-c2ccccn2)nc1 [Pt(tpbq)Cl2] | 94.8 ± 2.57 µM | > 100 µM | 99.4 ± 5.71 µM | 94.3 ± 12.3 µM | 39.4 ± 15.8 µM | 73.67 ± 0.28 µM | > 100 µM | migration of HeLa cells toward the scratch zone (HeLa cells [5]): declined; IC50 (CHO-K1 cells; CHO-K1, 48 h exposure): 86.6 ± 1.98 µM; IC50 (CHO-K1 cells; CHO-K1, 72 h exposure): 77.5 ± 0.87 µM; KSV (Stern–Volmer quenching constant) (EtBr-bound CT-DNA): 0.0082; ΔG^o (standard Gibbs free energy change) [4]: -31400 J; ΔH^o (standard enthalpy change) [4]: 22900 J; ΔS^o (standard entropy change) [4]: 174.97 J/K
105 °C | 0.0589 | 95 ± 2.93 µM | > 100 µM | > 100 µM | > 100 µM | > 100 µM | > 100 µM | 88.9 ± 8.31 µM | 79.7 ± 24.2 µM | > 100 µM | > 100 µM | 9.24 ± 4.16 µM | [Cl][Pt][Cl].c1csc(-c2nc3ccc(-c4ccc5nc(-c6cccs6)c(-c6cccs6)nc5c4)cc3nc2-c2cccs2)c1 [Pt(ttbq)Cl2] | 85 ± 10.8 µM | > 100 µM | > 100 µM | 93.5 ± 18.4 µM | 65.5 ± 17.7 µM | 49.5 ± 5.73 µM | > 100 µM | migration of HeLa cells toward the scratch zone (HeLa cells [5]): declined; IC50 (U87 cells; U87, 72 h exposure): 5.95 ± 1.68 µM; IC50 (CHO-K1 cells; CHO-K1, 48 h exposure): > 100 µM; IC50 (CHO-K1 cells; CHO-K1, 72 h exposure): > 100 µM; KSV (Stern–Volmer quenching constant) (EtBr-bound CT-DNA): 0.0143; ΔG^o (standard Gibbs free energy change) [4]: -28600 J; ΔH^o (standard enthalpy change) [4]: 33200 J; ΔS^o (standard entropy change) [4]: 198.00 J/K
